Earlier results, collected in PMC3635145 (Journal of medicinal chemistry, 2013).

Biological target: T1, TbrPDEB1 (Trypanosoma brucei, UniProt Q8WQX9)
T1 sequence (Q8WQX9 1-930): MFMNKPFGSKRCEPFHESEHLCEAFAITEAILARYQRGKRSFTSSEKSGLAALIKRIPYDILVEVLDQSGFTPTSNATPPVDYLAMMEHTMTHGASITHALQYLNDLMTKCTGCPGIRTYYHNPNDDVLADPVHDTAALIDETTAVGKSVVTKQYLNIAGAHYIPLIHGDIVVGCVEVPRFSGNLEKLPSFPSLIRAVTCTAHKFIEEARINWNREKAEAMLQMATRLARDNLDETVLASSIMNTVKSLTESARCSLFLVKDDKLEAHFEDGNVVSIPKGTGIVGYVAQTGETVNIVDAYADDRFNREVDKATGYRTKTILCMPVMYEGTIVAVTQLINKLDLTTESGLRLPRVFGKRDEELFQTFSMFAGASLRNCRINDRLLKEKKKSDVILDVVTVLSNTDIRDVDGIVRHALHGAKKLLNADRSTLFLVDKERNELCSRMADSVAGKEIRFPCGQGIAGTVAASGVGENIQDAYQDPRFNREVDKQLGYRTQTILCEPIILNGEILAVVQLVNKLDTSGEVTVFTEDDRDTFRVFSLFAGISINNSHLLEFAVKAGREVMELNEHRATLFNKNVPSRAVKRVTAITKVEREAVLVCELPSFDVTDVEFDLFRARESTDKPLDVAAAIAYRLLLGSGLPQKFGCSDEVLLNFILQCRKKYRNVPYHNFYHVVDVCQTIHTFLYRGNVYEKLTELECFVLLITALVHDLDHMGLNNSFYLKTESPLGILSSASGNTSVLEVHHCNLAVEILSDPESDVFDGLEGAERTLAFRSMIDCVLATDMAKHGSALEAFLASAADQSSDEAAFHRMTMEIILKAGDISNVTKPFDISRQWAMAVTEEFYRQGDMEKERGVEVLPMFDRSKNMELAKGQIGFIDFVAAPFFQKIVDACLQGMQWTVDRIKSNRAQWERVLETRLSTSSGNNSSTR

COc1ccc(C(=O)CC(C)C)cc1OCCCCO [compound 5, 1-(3-(4-hydroxybutoxy)-4-methoxyphenyl)-3-methylbutan-1-one]
TbrPDEB1 inhibition (in words): appears to inhibit TbrPDEB1 to some extent
